This note sets out measurements from article PMC7736581, “Activation of the IRE1 RNase through remodeling of the kinase front pocket by ATP-competitive ligands” (Nature Communications, 2020).

Common to all, as to test: biochemical
Design in all cases: Invitrogen kinase panel: Z'Lyte activity (ATP at Km) or LanthaScreen competitive ATP-site binding, percent inhibition
On the technique in general: Time-resolved FRET reads energy transfer from a long-lived donor to a nearby acceptor.

The target in experiment [1] is T1, Aurora_A (Homo sapiens, UniProt O14965).
T1 construct: gene AURKA
T1 sequence (O14965 1-403): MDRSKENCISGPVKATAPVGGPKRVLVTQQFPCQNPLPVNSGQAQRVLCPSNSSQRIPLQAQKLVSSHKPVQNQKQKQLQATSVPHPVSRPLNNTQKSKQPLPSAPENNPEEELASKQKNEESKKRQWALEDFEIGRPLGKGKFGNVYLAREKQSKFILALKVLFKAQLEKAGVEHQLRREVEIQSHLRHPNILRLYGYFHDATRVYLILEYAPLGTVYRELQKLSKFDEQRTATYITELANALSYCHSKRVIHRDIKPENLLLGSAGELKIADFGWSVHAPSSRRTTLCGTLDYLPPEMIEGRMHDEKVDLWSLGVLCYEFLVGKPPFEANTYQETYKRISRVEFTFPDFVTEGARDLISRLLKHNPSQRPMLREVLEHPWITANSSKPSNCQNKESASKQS

Experiment [2] has as its target PAK1 (Homo sapiens, UniProt Q13153).
In experiment [3] the target is T2, PKC_zeta (Homo sapiens, UniProt Q05513).
T2 construct: gene PRKCZ
T2 sequence (Q05513 1-592): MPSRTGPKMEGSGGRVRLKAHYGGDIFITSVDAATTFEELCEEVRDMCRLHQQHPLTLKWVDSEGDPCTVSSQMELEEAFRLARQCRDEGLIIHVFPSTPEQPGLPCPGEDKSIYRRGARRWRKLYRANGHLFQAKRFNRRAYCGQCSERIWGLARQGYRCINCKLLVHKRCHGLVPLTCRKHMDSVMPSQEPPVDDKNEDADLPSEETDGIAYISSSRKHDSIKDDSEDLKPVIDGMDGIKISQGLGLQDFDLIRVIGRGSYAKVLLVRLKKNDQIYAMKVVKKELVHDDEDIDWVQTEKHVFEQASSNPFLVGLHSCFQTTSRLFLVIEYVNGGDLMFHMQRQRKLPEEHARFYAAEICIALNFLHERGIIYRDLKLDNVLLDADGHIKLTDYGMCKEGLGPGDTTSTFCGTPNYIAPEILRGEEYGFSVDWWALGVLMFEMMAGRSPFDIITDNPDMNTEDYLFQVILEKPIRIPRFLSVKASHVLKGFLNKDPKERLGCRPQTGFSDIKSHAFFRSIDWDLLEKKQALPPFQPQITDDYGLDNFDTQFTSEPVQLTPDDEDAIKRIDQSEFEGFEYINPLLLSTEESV

Experiment [4] addresses T3, NEK1 (Homo sapiens, UniProt Q96PY6).
T3 sequence (Q96PY6 1-1258): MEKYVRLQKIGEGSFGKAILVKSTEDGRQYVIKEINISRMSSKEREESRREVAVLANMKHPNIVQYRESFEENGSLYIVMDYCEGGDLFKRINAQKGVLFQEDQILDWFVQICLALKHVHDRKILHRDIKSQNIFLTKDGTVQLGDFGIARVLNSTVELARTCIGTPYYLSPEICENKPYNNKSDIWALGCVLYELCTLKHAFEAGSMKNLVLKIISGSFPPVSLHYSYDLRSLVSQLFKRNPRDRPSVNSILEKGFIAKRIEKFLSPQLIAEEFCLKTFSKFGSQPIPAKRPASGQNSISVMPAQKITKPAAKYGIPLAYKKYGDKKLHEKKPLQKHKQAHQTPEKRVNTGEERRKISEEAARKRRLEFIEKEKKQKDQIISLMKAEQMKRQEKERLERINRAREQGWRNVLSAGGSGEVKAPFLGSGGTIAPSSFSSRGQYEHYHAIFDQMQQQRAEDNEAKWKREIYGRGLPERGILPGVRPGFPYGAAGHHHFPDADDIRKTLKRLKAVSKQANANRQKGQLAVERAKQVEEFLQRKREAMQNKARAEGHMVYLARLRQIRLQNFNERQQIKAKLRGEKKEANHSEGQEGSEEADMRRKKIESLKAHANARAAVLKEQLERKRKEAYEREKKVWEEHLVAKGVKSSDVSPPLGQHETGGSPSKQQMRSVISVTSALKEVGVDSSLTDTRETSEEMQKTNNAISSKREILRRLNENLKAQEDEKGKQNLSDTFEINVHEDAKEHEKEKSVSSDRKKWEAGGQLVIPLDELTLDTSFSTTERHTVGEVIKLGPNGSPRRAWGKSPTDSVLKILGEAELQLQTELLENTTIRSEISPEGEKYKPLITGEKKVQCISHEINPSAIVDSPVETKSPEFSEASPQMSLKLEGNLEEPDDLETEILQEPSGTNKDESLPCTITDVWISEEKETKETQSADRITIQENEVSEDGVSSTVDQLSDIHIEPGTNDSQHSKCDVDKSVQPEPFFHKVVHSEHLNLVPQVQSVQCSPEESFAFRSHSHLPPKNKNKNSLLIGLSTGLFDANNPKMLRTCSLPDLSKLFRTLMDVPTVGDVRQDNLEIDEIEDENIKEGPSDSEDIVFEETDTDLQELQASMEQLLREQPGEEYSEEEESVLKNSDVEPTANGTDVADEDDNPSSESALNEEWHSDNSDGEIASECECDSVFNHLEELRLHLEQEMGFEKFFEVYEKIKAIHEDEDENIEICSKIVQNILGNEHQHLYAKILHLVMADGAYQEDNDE

The target in experiment [5] is PRKAA1 (Homo sapiens, UniProt Q13131).
Sequence of PRKAA1 (Q13131 whole entry): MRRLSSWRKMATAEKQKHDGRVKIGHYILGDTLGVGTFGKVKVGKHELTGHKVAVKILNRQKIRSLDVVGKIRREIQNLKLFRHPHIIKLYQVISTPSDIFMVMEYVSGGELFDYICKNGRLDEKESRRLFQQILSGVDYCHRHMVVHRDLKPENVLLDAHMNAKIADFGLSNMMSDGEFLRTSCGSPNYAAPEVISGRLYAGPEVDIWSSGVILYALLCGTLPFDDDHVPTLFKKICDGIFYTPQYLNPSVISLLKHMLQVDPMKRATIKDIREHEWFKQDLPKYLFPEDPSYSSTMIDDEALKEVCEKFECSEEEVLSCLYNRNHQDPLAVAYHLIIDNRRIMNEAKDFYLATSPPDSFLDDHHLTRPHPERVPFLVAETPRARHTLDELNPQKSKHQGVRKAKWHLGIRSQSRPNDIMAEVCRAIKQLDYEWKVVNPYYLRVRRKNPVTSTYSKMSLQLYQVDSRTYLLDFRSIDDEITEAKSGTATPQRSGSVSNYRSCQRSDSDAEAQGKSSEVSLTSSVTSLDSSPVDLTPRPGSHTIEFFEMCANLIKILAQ
Sequence of PRKAA1 (P54619 whole entry partner): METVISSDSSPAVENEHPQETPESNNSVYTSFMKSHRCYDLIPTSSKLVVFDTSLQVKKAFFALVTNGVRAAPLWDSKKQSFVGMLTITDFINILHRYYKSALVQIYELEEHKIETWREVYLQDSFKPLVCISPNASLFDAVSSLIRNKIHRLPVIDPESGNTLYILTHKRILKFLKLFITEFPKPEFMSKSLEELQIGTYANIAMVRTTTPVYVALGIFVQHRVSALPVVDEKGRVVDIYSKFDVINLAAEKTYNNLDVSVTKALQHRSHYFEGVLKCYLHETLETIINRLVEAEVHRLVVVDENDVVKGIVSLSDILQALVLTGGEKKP
Sequence of PRKAA1 (Q9Y478 whole entry partner): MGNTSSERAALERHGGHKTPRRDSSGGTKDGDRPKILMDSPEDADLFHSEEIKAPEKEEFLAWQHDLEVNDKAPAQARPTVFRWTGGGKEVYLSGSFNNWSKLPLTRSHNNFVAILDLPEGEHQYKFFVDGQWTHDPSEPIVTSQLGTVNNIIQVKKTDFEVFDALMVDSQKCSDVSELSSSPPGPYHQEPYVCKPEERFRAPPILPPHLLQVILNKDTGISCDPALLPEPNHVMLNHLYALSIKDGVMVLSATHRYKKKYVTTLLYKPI
Experiment [6] has as its target Src (Homo sapiens, UniProt P12931).
Experiment [7] deals with FGFR1 (Homo sapiens, UniProt P11362).
Sequence of FGFR1 (P11362 whole entry): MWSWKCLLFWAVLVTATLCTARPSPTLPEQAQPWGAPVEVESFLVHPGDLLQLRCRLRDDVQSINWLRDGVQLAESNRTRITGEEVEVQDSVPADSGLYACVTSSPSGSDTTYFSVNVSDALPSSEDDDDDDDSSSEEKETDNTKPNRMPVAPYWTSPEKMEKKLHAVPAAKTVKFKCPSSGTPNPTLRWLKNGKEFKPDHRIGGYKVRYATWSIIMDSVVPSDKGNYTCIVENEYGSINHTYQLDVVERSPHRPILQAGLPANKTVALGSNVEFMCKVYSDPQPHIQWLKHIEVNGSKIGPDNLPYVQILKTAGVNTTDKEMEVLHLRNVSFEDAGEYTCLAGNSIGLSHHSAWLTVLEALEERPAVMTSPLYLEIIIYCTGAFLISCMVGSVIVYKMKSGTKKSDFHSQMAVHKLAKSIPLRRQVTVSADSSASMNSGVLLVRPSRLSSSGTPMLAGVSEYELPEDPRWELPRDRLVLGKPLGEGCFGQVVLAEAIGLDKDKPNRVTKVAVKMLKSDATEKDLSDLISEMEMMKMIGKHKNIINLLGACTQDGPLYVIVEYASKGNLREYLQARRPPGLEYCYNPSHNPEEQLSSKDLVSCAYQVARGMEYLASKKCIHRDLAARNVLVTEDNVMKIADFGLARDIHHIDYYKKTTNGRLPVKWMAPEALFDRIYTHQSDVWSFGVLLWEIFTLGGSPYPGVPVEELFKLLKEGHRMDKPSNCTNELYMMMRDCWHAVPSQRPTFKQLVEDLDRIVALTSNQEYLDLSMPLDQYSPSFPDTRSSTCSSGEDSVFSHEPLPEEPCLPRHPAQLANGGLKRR
In experiment [8] the target is T4, MEK1 (Homo sapiens, UniProt Q02750).
T4 construct: gene MAP2K1
T4 sequence (Q02750 whole entry): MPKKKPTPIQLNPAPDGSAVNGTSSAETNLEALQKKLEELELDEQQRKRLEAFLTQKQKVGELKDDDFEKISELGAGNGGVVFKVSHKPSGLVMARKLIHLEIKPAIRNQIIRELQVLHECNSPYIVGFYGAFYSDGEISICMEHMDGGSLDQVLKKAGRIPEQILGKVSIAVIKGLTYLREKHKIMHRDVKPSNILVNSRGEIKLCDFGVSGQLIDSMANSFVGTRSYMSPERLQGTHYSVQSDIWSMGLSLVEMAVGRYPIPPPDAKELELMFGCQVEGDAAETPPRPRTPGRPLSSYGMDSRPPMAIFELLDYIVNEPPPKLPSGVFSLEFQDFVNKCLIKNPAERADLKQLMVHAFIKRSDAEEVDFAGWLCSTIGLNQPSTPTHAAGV

Sequence of Src (P12931 whole entry): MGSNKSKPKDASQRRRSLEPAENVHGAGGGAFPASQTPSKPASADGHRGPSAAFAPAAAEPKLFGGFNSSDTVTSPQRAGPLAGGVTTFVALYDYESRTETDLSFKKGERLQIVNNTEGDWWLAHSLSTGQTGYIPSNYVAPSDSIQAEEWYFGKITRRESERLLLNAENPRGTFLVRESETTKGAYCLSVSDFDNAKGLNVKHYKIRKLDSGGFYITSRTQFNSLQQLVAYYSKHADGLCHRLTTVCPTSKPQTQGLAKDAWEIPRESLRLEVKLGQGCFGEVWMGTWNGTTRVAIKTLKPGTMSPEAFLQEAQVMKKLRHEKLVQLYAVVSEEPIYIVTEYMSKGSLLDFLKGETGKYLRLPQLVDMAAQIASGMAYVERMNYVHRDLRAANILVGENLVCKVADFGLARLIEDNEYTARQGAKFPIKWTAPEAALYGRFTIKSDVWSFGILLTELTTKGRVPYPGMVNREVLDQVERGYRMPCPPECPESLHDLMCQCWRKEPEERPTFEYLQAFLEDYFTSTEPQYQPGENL
Sequence of PAK1 (Q13153 whole entry): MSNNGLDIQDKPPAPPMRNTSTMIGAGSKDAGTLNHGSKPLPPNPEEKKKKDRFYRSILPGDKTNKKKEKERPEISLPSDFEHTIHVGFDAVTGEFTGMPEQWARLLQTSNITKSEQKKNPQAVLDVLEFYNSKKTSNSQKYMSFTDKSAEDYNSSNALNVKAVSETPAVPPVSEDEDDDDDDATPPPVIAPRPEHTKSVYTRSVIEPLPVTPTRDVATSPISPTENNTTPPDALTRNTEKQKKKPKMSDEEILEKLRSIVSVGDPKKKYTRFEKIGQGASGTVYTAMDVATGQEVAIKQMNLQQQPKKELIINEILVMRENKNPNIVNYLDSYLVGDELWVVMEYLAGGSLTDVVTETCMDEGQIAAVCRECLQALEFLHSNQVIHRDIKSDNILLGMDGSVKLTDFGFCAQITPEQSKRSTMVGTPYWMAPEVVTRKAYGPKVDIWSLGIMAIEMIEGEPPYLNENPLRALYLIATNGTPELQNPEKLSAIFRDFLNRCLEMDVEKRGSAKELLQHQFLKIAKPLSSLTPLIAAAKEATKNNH

`O=c1cc(-c2n[nH]c3ncc(-c4c(F)cccc4F)cc23)nc(N2CCC(O)CC2)[nH]1` [G-9807]: the inhibition (commonly the drop in the measured response relative to a control, in per cent) at 1 µM in experiment [1] was 92%; in experiment [2], 85.7%; in experiment [3], 34.2%; in experiment [4] it was 90.2%; in experiment [5], 96.2%; in experiment [6] it was 52.5%. Also, the inhibition at 1 µM in experiment [7] stood at 83.8%; in experiment [8], 95.4%.
On to `CC#CC(=O)Nc1cccc2c(Oc3ncccc3-c3ccnc(N[C@H]4CCCNC4)n3)c(C)ccc12` [G-7658], for which the inhibition at 1 µM in experiment [1] was -7%; in experiment [2], 5%; in experiment [3], 18.5%; in experiment [4] it was 3%; in experiment [5], 12%; in experiment [6], 22.5%. For the same compound, the inhibition at 1 µM in experiment [7] was 13%; in experiment [8] it was 0.5%.
Take `CCOC(=O)Nc1cccc2c(Oc3ncccc3-c3ccnc(N[C@H]4CCCNC4)n3)c(C)ccc12` [G-1749]: the inhibition at 1 µM is -9.5% in experiment [1]; 7% in experiment [2]; 12% in experiment [3]; 0.5% in experiment [4]; 0% in experiment [5]; 28% in experiment [6]. In addition, the inhibition at 1 µM in experiment [7] worked out at 14%; in experiment [8] it was 2%.
